Measured values: patent publication US20250186423A1, “METHODS OF TREATING CANCER AND OTHER CONDITIONS WITH A MU OPIOID RECEPTOR ANTAGONIST” (priority 2022, published 2025)

Columns and labels:
[1] = system: blood vessels reaching MDA-MB-231 tumor on the CAM; assay: Chicken egg chorioallantoic membrane (CAM) tumor angiogenesis, blood vessel count; format: in vivo; details: 0.1, 0.5, 1.0 mg/kg; absence of exogenous opioids
Method: Two independent model systems were used to explore the role of MOR and endogenous opioids on angiogenesis. Human umbilical vein endothelial cells (HUVEC) in culture initiate angiogenesis through tube formation when cultured on an appropriate extracellular matrix. In a living system, the chicken egg chorioallantoic membrane assay (CAM) allows direct visualization of new blood vessel formation.
Furthermore, a chicken egg chorioallantoic membrane assay was conducted to determine blood vessel formation in the presence of increasing MOR antagonist (axelopran) concentrations (0, 0.1, 0.5, 1.0 mg/kg). Docetaxel was used as a control. For the testing CAM membranes were incubated in the presence of the MOR antagonist or docetaxel under the following conditions: Fertilized White Leghorn eggs were incubated at 37.5° C. with 50% relative humidity for 9 days. At that moment (E9), the CAM was dropped down by drilling a small hole through the eggshell into the air sac, and a 1 cm window was cut in the eggshell above the CAM. At least 20 eggs (depending on embryo surviving rate after 9 days of development, there could be more than 20 eggs per group) were grafted for each group. […] The number of blood vessels that reach the tumor and feed the tumor proliferation were counted in triplicate to evaluate tumor angiogenesis. […]

Zebra fish larvae = Zebra fish larvae toxicity screen; format: in vivo, zebrafish; details: doses up to 100 μM in incubation water
Method: Transgenic Tg(fli1: EGFP)y1 zebrafish embryos were used for these studies. The results of this testing are shown in FIG. 4A and FIG. 4B, which show Zebra fish larvae survival up to 72 hours in the presence of increasing axelopran concentration in the incubation water.
Based on the toxicity screening, for tumor progression analysis, doses up to 10 μM were utilized.
(§1) The toxicity screening period covered the first 72 hours of development. The efficacy evaluation of Axelopran was made using M-001 melanoma cells and matching TILs. Two-day old zebrafish embryos were subcutaneously injected into the perivitelline space with approximately 700 M-001 cells labelled with Dil red fluorescent dye and intravenously injected with TILs with or without pembrolizumab antibody. At the same time, MOR-antagonist test doses were added to the water. Following an additional 72 hours of further development, the fish were assayed for tumor growth (size of original tumor implant) and metastasis disseminated to the distal caudal venous plexus (CVP) three days after implantation.

M-001 melanoma cells = assay: Melanoma tumor progression in Zebra fish larvae; format: in vivo, zebrafish; details: for Melanoma tumor progression index (tumor size × metastasis), Mean: 72 hours of growth
Method: Zebra fish larvae (FIG. 3A) allow direct visualization of injected tumor cell growth and metastasis (collectively tumor progression) using fluorescently label tumor cells. At this developmental stage both the zebra fish immune system and gut microbiome are immature or lacking. Co-injection of exogenous tumor infiltrating lymphocytes (ex-TILS) allows the separate study of immune surveillance in the absence of a microbiome.
as §1
The testing described above was repeated studying the effects of various doses of axelopran (0, 50 nM, 100 nM, 500 nM, and 1000 nM) alone, pembrolizumab alone, or pembrolizumab in combination with axelopran. The results of this testing are shown in FIG. 7, which depicts a summary of melanoma tumor progression (tumor size×#metastasis) in the presence of increasing axelopran concentrations or the checkpoint inhibitor pembrolizumab. For experiments using pembrolizumab, exogenous tumor-infiltrating lymphocytes (TILs) were also injected. The additional controls included the effect of TILs alone and with axelopran (500 nM) and pembrolizumab and TILs alone and with axelopran (500 nM). *=<0.05, **=<0.005, ***=<0.0005.

[2] = system: chicken CD3, MMD and CD244; assay: Immune cell infiltration into CAM breast cancer tumors (RT-qPCR); format: in vivo; details: axelopran used in the presence of bevacizumab and pembrolizumab
Method: Infiltration of host immune cells into the tumor environment is required for host reduction of tumor progression. Among the tumors collected at E18, after tumor weighing, 10 tumors per group (n=10) were used for RNA extraction, in 6 groups (Gr. 1, 2, 3, 4, 7, and 8). After that, extracted RNA was analyzed by RT-qPCR with specific primers for chicken CD3, MMD and CD244 sequences. For all points done in qPCR, expression of human GAPDH was also analyzed, as reference gene expression, and used to normalize immune biomarker expression between samples. Calculation of Cq for each sample, mean Cq and relative amounts of immune cells for each group were directly managed by the Bio- Rad CFX Maestro software (see FIG. 11).
The infiltration of chicken CD3^+, CD244^+, and MMD^+ immune cells into breast cancer tumors grown on the upper CAM in the presence of axelopran, pembrolizumab, bevacizumab and combinations are shown in FIG. 11.

[3] = system: Mouse colon cancer (MC38) cells; assay: Syngeneic mouse colon cancer model; format: in vivo, mice (C57BL6)
Method: The syngeneic mouse model assay (FIG. 3B) allows a complete system where tumor progression is quantified in the presence of endogenous immune surveillance and an active gut microbiome.
Mouse colon cancer (MC38) cells were amplified in vitro prior to implantation. On the day of injection, cells were harvested, counted including a trypan blue viability dye (cut-off 80%), and resuspended in PBS at the appropriate concentration. The cells were injected subcutaneously in the right flank of Female mice (C57BL6), 5 weeks of age (18-22 gm body weight) at 5.106 cells/mouse in 200 μL PBS within 30 minutes after harvesting. After 15-18 days of tumor growth, mice were randomized into treatment groups at 10 animals/group. Animals were weighed thrice weekly and tumor growth measured using callipers. The tumour volume (TV) was extrapolated to a sphere using the formula shown below: […]
by calculating the mean radius from the two measurements.
The results of these studies are shown in FIG. 12A, 12B, 13 as well as Table 2-3. The tumor growth curves in animals treated with the MOR antagonist, axelopran, mouse anti-PD-1 or a combination of both treatments are shown in FIGS. 12A and 12B. FIG. 12A and FIG. 12B show MC38 colon cancer tumor growth in syngeneic mice treated with Vehicle (Control), axelopran (1 mg/kg, p.o. daily), mouse anti-PD-1 (12.5 mg/kg i.p.,3×-weekly) or axelopran plus anti-PD-1.

[4] = absence of exogenous opioids, melanoma

For `NC(=O)c1cccc(C2CC3CCC(C2)N3CCN(CC2CCCCC2)C(=O)[C@@H](O)CO)c1` (stereo partly drawn) [axelopran, 3-[(1R,3r,5S)-8-(2-{(cyclohexylmethyl)[(2S)-2,3-dihydroxypropanoyl]amino}ethyl)-8-azabicyclo[3.2.1]octan-3-yl]benzamide], the “angiogenesis (blood vessel formation, CAM)” value [1] was “inhibit angiogenesis”, the abnormal pathology (Zebra fish larvae) was “limited abnormal pathology” and the larvae death (Zebra fish larvae) was “did not result in larvae death”. The “survival and development of pathological lesions” value (Zebra fish larvae; up to 72 hours) was “no different that the vehicle control”, the metastasis (M-001 melanoma cells; 10 μM axelopran vs vehicle control) was “significantly reduced metastasis” and the “Melanoma tumor progression index (tumor size × metastasis), Mean” value (shortened to “Melanoma tumor progression index”) (M-001 melanoma cells; Axelopran 100 nM) was 5.71. For the same compound, the “Melanoma tumor progression index” value (M-001 melanoma cells; Axelopran 500 nM +TILS) was 2.73, the “Melanoma tumor progression index” value (M-001 melanoma cells; Axelopran 500 nM) was 3.62 and the “Melanoma tumor progression index” value (M-001 melanoma cells; Axelopran 1000 nM) was 1.85. For the same compound, the “interaction of axelopran activity with anti-PD-1 treatment” value (M-001 melanoma cells; absence of a microbiome, melanoma) was “additive”, the metastasis (M-001 melanoma cells; [4]) was “inhibits metastasis” and the tumor growth (M-001 melanoma cells; [4]) was “inhibits tumor growth”. The “infiltration of CD3+ lymphocytes, CD244+ natural killer cells and MMD+ macrophages into the tumor tissue” value [2] was “synergistically enhanced the infiltration”, the “Tumor Size @ day 13, Mean” value ([3]; axelopran 1 mg/kg p.o. daily, mouse anti-PD-1 12.5 mg/kg i.p. 3×-weekly) was 1,479 mm^3 and the “Survival, Median” value ([3]; axelopran 1 mg/kg, anti-PD-1) was 13.0 days. For the same compound, the “Growth Rate, Mean” value ([3]; initial 8 days of treatments, axelopran 1 mg/kg p.o. daily, mouse anti-PD-1 12.5 mg/kg i.p.) was 84.5 mm^3/day and the “interaction of axelopran activity with anti-PD-1 treatment” value ([3]; presence of a microbiome, colon cancer) was “synergistic”.
